The text below walks through data of patent publication US20090247420A1, “METHOD FOR ENCODING AND SCREENING COMBINATORIAL LIBRARIES” (priority 2005, published 2009).

For data set [1], the target named is T1, ImmunoPure avidin (Pierce) outfitted with xanthone ET-sensitizer (Gallus gallus, UniProt P02701).
T1 construct: purchased Pierce
The data set is described as follows: Photolytic tag-release binding screen of the tag-encoded model mini-library with avidin-xanthone conjugate in DPC micelles, GCMS detection of released dithiane tags. The conditions noted are these: for dithiane tags encoding the library member detected in the GCMS chromatogram after the photolytic assay: dithiane-aldehyde adduct tags, 0.7 mM each tagged library member, 23 μM protein, 155 mM DPC, incubated 1 hour, irradiated 4 hours, 335 nm long pass filter, hexane extract. The procedure:
The receptor, ImmunoPure® avidin (Pierce), was outfitted with xanthone as an ET-sensitizer. The N-hydroxysuccinimide ester of 11-(xanthone-2-carboxamido)undecanoic acid was coupled to avidin in a 20 mM sodium phosphate buffer according to a described procedure (Wilchek, Methods Enzymol), with subsequent purification on a Sephadex G-25 column. […] Tethering the xanthone-based sensitizer to avidin is no different from outfitting a receptor with a fluorophore for the conventional on-the-bead fluorescence-guided assays.
The screening volume was compartmentalized with micellar detergent, dodecyl phosphocholine (DPC), preventing indiscriminant collisional quenching of avidin-tethered xanthone by unbound molecules and thus limiting the ET sensitization exclusively to the bound host-guest complex. Besides the fact that amphiphiles displaying phosphocholine are common in biological settings, utilization of DPC micelles offers a number of additional benefits: (i) it ensures that the screening is always compatible with aqueous media, regardless of aqueous solubility of the tested libraries; (ii) it allows the design of the tagging system to be centered around readily available hydrophobic alkyl dithianes, which can be selectively extracted after irradiation with hexane or other non-polar solvents for unobstructed GCMS analysis; (iii) it spatially segregates the photofragmentation chemistry from molecular recognition, eliminating potential interference between them; (iv) it restricts the photochemistry to the micelle interior improving quantum efficiency of fragmentation, as it is known to increase in the non-polar environment; and, finally, (v) the micelle-assisted design offers an option of solubilizing certain target proteins, which are not water soluble. While not an issue with avidin, this functionality may be important in assaying insoluble membrane proteins, as recognized in the art.
A typical screening procedure involved solubilization of the mini-library, approximately 0.5 mg per tagged compound, in a 0.6 mL aqueous solution containing 60 mg of DPC. To this clear micellar solution 0.5 mL of avidin-xanthone conjugate was added, so the final concentrations were 0.7 mM of each library member carrying one tag (6.3 mM total), 23 μM protein and 155 mM DPC. The micelle-embedded molecules had apparent translational diffusion coefficients of 7×10^−7 cm^2s^−1, as measured with spin-echo pulse field gradient (PFG) ^1H NMR. […] Then the mixture was extracted with 0.5 mL of hexane, concentrated to 100 μL and analyzed by GCMS.
The generality of this approach is not limited to the tagging assemblies based on dithiane-aldehyde adducts. […] None of the other six dithianes were detected in the hexane extract after irradiation. […]

Data set [2] can be described thus: Benzophenone-sensitized photofragmentation of triazole 22 and its photostability without sensitizer. It counts as physicochemical. The procedure: To this end 3a was coupled with propargyl amine, providing the acetylenic tagging component S20 for the azide-acetylene click pair. Another readily available tag series was prepared from commercially available acetylenic benzaldehyde as shown in Scheme 12. The Staudinger ligation produces the benzamide linkage, found in compounds 4, 6 and 10, for example. Acetylene-azide click chemistry yields triazoles. […] Triazole 22 was unchanged after prolonged irradiation in the absence of the ET-sensitizer, showing no self-cleavage at wavelengths above 330 nm. This is a critically important finding because premature self-cleavage is detrimental to screening, as it produces false positives.

Molecules are shown by their SMILES.

T1 sequence (P02701 25-152): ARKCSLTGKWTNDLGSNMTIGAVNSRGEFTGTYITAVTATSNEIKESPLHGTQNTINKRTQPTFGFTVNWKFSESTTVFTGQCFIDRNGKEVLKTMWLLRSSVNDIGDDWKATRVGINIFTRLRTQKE

Turning to `O=C(O)CCCC[C@@H]1SC[C@@H]2NC(=O)N[C@@H]21` [biotin], the “dithiane tags encoding the library member detected in the GCMS chromatogram after the photolytic assay” value in data set [1] was “detected”. For the same compound, the “dithianes encoding the library member detected in the GCMS trace of the hexane extract after irradiation” value in data set [1] (mini-library tagged with nine thio ortho esters (19), three tags per member, DPC micellar solution, avidin-xanthone conjugate) is “showed only the dithianes encoding biotin”.

Regarding `NCCCCCCCCCCC(=O)O` [aminoundecanoic acid, 11-aminoundecanoic acid], the “dithiane tags encoding the library member detected in the GCMS chromatogram after the photolytic assay” value in data set [1] is listed as “not discernible at all”.

For the compound `COC(=O)CCCCCCCCCn1cc(-c2ccc(C(O)C3(C)SCCCS3)cc2)nn1` (stereo not drawn) [compound 22], the “stability to irradiation (self-cleavage)” value in data set [2] (prolonged irradiation in the absence of the ET-sensitizer, wavelengths above 330 nm) is listed as “unchanged”. Besides, the “quantum efficiency of methyl dithiane release” value in data set [2] (upon benzophenone sensitization, compared with the parent (unsubstituted) benzaldehyde adduct) was “very similar to the parent (unsubstituted) benzaldehyde adduct”.

As for `N[C@H]1C(O)O[C@H](CO)[C@@H](O)[C@@H]1O` (stereo partly drawn) [glucosamine], the “dithiane tags encoding the library member detected in the GCMS chromatogram after the photolytic assay” value in data set [1] is “not discernible at all”.
